Results: US7098306B2, “Method and compositions for treating hepatocellular cancer” (The Regents of the University of California, priority 1997, dated 2006)

Assays:
[1] = system: AdVhAFP/DC immunized murine splenocytes; assay: IFNg ELISPOT restimulation of AdVhAFP/DC immunized murine splenocytes with HPLC fractions eluted from HepG2 or Hep3B; type: cell-based; conditions: HPLC fractions from Hep3B elution
Description: To elute peptides, HepG2 and Hep3B cells were washed three times with PBS before being incubated with 5 ml of citrate-phosphate buffer at pH 3.2 for 1 minute. The suspension was centrifuged (800×g for 5 minutes) and a total of 500 ml of cell-free supernatant was collected for each cell line. The materials were lyophilized to dryness and stored at −20° C.
Lyophilized materials were redissolved in 30 ml of water/acetonitrile/triflouroacetic acid (W/A/TFA, 95/5/0.1 all by vol.). This solution was pumped onto an analytical reverse phase HPLC column (Keystone Scientific C18 Betasil, 250 mm×2 mm, […] particle size, 100 Å pore size) equilibrated in W/A/TFA, at a flow rate of 0.2 ml/min. The column was eluted using an increasing linear gradient of 0.1% TFA in acetonitrile (time/%acetonitrile=0/5, 5/5, 55/100, 60/100). Column eluate absorbance was monitored at 215 and 280 nm and 1 minute fractions were collected. The retention times of the synthetic peptides with amino acid sequences corresponding to the immunostimulatory peptides were obtained using the same separation gradient on a separate column.
To confirm the presence of dominant peptides in these fractions immunologically, […] of each HPLC fraction from either HepG2 or Hep3B cells was used to restimulate AdVhAFP/DC immunized murine splenocytes in an ELISPOT assay. 200–250 spots/10^6 cells were observed from fractions containing dominant peptides, where 100–130 spots/10^6 cells were observed from the other fractions, and a maximum of 50 spots/10^6 cells were observed from Hep3B fractions. This further supports the mass spectrometry identification of the dominant peptides.

[2] = system: AFP positive/A2.1+ hepatocellular carcinoma; assay: immunization of hepatocellular carcinoma patients with the four peptides in Montanide ISA-51, peripheral T cell responses by ELISPOT and tetramer; type: in vivo, human; conditions: for in vivo T cell responses: patient AFP-A1, 100 μg each peptide, after the second and third immunization; for T cell responses by tetramer and ELISPOT: patient AFP-A2, following two immunizations
Description: The method and compositions of the present invention were used to treat several patients with AFP positive/A2.1+ hepatocellular carcinoma. Each of the patients were immunized with the four peptides hAFP137-145, residues 137–145 of SEQ ID NO:2; hAFP158-166, residues 158–166 of SEQ ID NO:2; hAFP325-334, residues 325–334 of SEQ ID NO:2; and hAFP542-550, residues 542–550 of SEQ ID NO:2, according to the this method. The peptides were emulsified in 0.5 ml of Montanide™ ISA-51 and combined for a total of 2 ml. The emulsified peptides were divided into four equal doses and each dose was administered in a separate site. Peripheral T cell responses are measured by ELISPOT and tetramer assays.
(§1) They were administered three immunizations of 100 μg each of the four peptides in Montanide™ ISA at two week intervals. Parallel in vitro PBMC cultures were also established from the first patient's blood before immunization and repetitively pulsed with each peptide. […] The presence of AFP542-specific T cells could not be assessed by tetramer as an AFP542 peptide tetramer could not be folded by the facility where these reagents are prepared.
The second patient, designated AFP-A2 was a person with a history of ethanol-induced liver cirrhosis, who was negative for both Hepatitis B and C. […] Their AFP level at presentation was 10,400 ng/ml. […] Seven months after presentation, they were then begun on a combination of the four peptides hAFP137-145, residues 137–145 of SEQ ID NO:2; hAFP158-166, residues 158–166 of SEQ ID NO:2; hAFP325-334, residues 325–334 of SEQ ID NO:2; and hAFP542-550, residues 542–550 of SEQ ID NO:2 using the protocol according to the present invention. They received two immunizations two weeks apart.

PBMC cultures = assay: parallel in vitro PBMC cultures of patient AFP-A1 repetitively pulsed with each peptide; type: cell-based, human; conditions: patient AFP-A1, day 28 cultures
Description: as §1

| Sequence | Immunologically Reactive Fractions (IFNg ELISPOT) Hep3B [1] | in vivo T cell responses [2] | T cell responses by tetramer and ELISPOT [2] | in vitro recognition by tetramer (PBMC cultures) |
| --- | --- | --- | --- | --- |
| GVALQTMKQ (listed as Homo sapiens) [hAFP542-550, dominant HLA-A*0201 peptide derived from human alpha fetoprotein] | 0 | clear recognition | T cell responses were detected |  |
| FMNKFIYEI (listed as Homo sapiens) [hAFP158-166, dominant HLA-A*0201 peptide derived from human alpha fetoprotein] | 0 | clear recognition | T cell responses were detected |  |
| PLFQVPEPV (listed as Homo sapiens) [hAFP137-145, dominant HLA-A*0201 peptide derived from human alpha fetoprotein] | 0 | clear recognition | T cell responses were detected | clear in vitro recognition |
| GLSPNLNRFL (listed as Homo sapiens) [hAFP325-334, dominant HLA-A*0201 peptide derived from human alpha fetoprotein] | 0 | trend towards recognition | T cell responses were detected | clear in vitro recognition |
